Results reported in paper PMC8244865, “Recruitment of phospholipase Cγ1 to the non-structural membrane protein pK15 of Kaposi Sarcoma-associated herpesvirus promotes its Src-dependent phosphorylation” (PLoS Pathogens, 2021).

B1: pK15 CT^WT: pK15 cytoplasmic tail fused to GST at its N-terminal end, phosphorylated in vitro by Src (protein)
chain: SQLLNEVELQEVNRDPPNVFGYASILVSGAEESREPSPQPDQSGMSILRVDGGSAFRIDTAQAATQPTDDLYEEVLFPRN
modifications: tyrosine-phosphorylated in vitro by Src; sites not stated for this construct; left off: GST, N-terminal, kept

Tests used:
[1] = test system: PLCγ1 nSH2 domain (in tSH2 aa 545–772); assay: crystal structure with truncated PLCγ1 tSH2, nSH2 site; format: binding; settings: truncated tSH2 (aa 545–772), resolution 2.1 Å
Method: A shortened version of the PLCγ1 tSH2 domain (aa 545–772) lacking the linker peptide connecting the PLCγ1 cSH2 and SH3 domains (see Results section) was cloned into a pET28a vector carrying an N-terminal His Tag and a SUMO sequence. Expression was carried out in E. coli and the protein was purified to homogeneity as described above. His-Tag and SUMO were proteolytically removed using SUMO protease (SIGMA) following the manufacturer’s instructions, and the cleaved protein purified on a HisTrap column. Fractions containing cleaved protein were further purified by size exclusion chromatography (SEC) using a Superdex 75 26/600 column (GE Healthcare) equilibrated with 50mM Tris pH7.5, 150mM NaCl and 1mM TCEP buffer. The purified protein in SEC buffer was added to lyophilized phosphorylated 12mer pK15 peptide (DDLpYEEVLFPRN) in a 1:8 molar ratio (Protein: peptide) at a final concentration of 3mg/ml of peptide and 7.5mg/ml protein. Crystals were grown at 293 K using the sitting-drop vapor diffusion method in drops containing 1μl protein solution mixed with 1 μL reservoir solution containing 30% PEG 4000, 0.1M TrisHCl pH 8.5 and 0.2M sodium acetate. The crystals were flash frozen in the mother liquor containing 30% ethylene glycol and diffraction data were collected at P13 at DESY-Hamburg. Data were processed, scaled and reduced with XDS [75], Pointless and programs from the CCP4 suite. […]

[2] = test system: PLCγ1 SA and PLCγ1 tSH2, cSH2 R^694L mutant; assay: AlphaLISA, SA and tSH2 R694L mutant; format: binding; settings: phosphorylated; 300 nM each protein
Method: Fig 4 The PLCγ1 cSH2 domain is required for the binding of PLCγ1 to phosphorylated pK15 in vitro and may serve as a dominant-negative inhibitor. GST-fused pK15 cytoplasmic tail WT (A), or its truncated mutant N2 [51] (B), were phosphorylated in vitro by 2xStrep-Src and an AlphaLISA was performed with the indicated His-tagged fragments of PLCγ1. Mean and standard deviation from at least two independent experiments with two technical replicates each are depicted. GST fusion proteins of the N1 (C) or N2 (D) truncation mutants of the pK15 cytoplasmic tail were phosphorylated in vitro by 2xStrep-Src and their interaction with recombinant purified PLCγ1 tSH2 (tandem SH2) or SA (γ-specific array) domains was measured by AlphaLISA in the presence of increasing concentrations (300 nM, 600 nM, 900 nM, 1200 nM) of the purified PLCγ1 cSH2. […] After 48h lysates were collected and analysed by Western blot using an antibody to PLCγ1 pY^783 to assess the level of PLCγ1 phosphorylation. (F) The intensities of the pPLCγ1 bands shown in panel E were quantified by densitometry, normalized to the values obtained with the empty vector (EV) in the presence of pK15, and plotted as relative values. […]
His-tagged PLCγ1 (SA, tSH2 or the isolated SH2 domains) was incubated at room temperature with GST-tagged K15P or its mutants for 1 hour. […] Emission at 615 nm was detected on BioTek Synergy 2 plate reader.

Molecule | binding site occupancy in crystal structure [1] | interaction (AlphaLISA) [2]
DDLpYEEVLFPRN [pK15 12mer, phosphorylated peptide representing the last 12 amino acids of pK15 CT (DDLp…)] | at lower occupancy peptide binding to the nSH2 domain was also observed | –
B1 | – | markedly reduced binding
